Measurements as given in patent publication US5104865A, “Iron complexes of hydroxypyridones useful for treating iron overload” (National Research Development Corporation, priority 1983, dated 1992).
Where two headings read alike, the source gives them in different places.

Legend:
[1] = 100 uM, pH 7.4
Procedure: (§1) The partition coefficient Kpart, being the ratio (concentration of compound in n-octanol)/(concentraction of compound in aqueous phase) on partition between n-octanol and aqueous tris hydrochloride (20 mM, pH 7.4), is measured by spectrophotometry at 20° C. for various of the compounds of the previous Examples and for their iron(III) complexes (at 10^-4 M). […] Acid washed glassware is used throughout and, following mixing of 5 ml of the 10^-4 M aqueous solution with 5 ml n-octanol for 1 minute, the aqueous n-octanol mixture is centrifuged at 1,000 g for 30 seconds. The two resulting phases are separated for a concentration determination by spectrophotometry on each. For the metal-free linked hydroxypyridone compounds, the range 220-340 nm is used for concentration determinations whilst for the iron complexes, the range 340-640 nm is used.

[2] = Partition coefficient Kpart between n-octanol and aqueous tris hydrochloride; conditions: n-octanol/tris hcl, pH 7.4
Procedure: as §1

inverted rat jejunal sac = experiment: Permeation of inverted rat jejunal sac by iron complexes; format: in vitro ADME; conditions: relative to ferric chloride as 1; 59Fe complexes, 37° C., up to 1 hour
Excerpt: Rats (male Sprague Dawley, 60 g) were killed and the jejunum removed, everted and cut into three segments (4 cm length). […] The contents of the sac were counted for ^59 Fe and measured spectrophotometrically.

Human transferrin = target: T1, Human transferrin (Homo sapiens, UniProt P02787); experiment: Mobilisation of iron from transferrin; format: biochemical; conditions: for Percentage of iron removed from transferrin after 6 hours: compound 4×10^-3 M, 59Fe(III) transferrin 10^-5 M, tris HCl 0.1M pH 7.4, 6 hours
T1 construct: purchased Sigma
Procedure: Human transferrin (Sigma) was loaded with iron(III) by the method of Bates and Schlaback, J. Biol. Chem. (1973) 248, 3228. ^59 Iron (III) transferrin (10^-5 M) was incubated with a 4×10^-3 M solution in tris HCl (0.1M, pH 7.4) of one of various pyridones as indicated in Table 4 for periods of 6 hours.

[3] = Affinity for iron(III) expressed as log Ksol; format: physicochemical
Excerpt: In order to solubilise iron(III) hydroxide, log Ksol must be greater than 0 and in order to remove iron from transferrin, log Ksol should be in excess of 6.0. The log Ksol values for the single ring compounds 3-hydroxyl-1-methylpyrid-2-one and 1,2-dimethyl-3-hydroxypyrid-4-one, by way of example, are 10.0 and 9.5, respectively, thus comparing favourably with those of the bidentate hydroxamates at about 4.0, of catechols at about 8.0, of desferrioxamine at 6.0, and of diethylenetriamine penta-acetic acid (DTPA) at 2.0.

Horse spleen ferritin [4] = target: T2, Horse spleen ferritin (Equus caballus, UniProt P02791); conditions: similar test, cited from earlier work
T2 construct: purchased Sigma; host or cells: horse spleen
T2 sequence (P02791 2-175 limits assumed): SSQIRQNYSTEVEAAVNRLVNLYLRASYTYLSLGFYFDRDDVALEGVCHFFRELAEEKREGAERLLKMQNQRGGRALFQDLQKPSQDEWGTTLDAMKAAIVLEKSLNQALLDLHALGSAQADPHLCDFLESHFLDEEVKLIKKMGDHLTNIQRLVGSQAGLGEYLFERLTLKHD

Horse spleen ferritin [5] = target: T2, Horse spleen ferritin; experiment: Mobilisation of iron from ferritin; format: biochemical; conditions: 25° C., pH 7.4
Procedure: Horse spleen ferritin (Sigma) was used without further purification and its iron content was estimated spectrophotometrically at 420 nm. The ferritin solution in phosphate buffered saline (Dulbecco-OXOID, 10^-6 M, pH 7.4) was incubated at 25° C. with the compound at 10^-4 M for 6 and 24 hours. Apoferritin (in admixture with ferritin) and the particular linked hydroxypyridone Fe^(III) complex were separated by chromatography on Sephadex G10. The absorption spectra of the high and low molecular weight fractions were recorded and the percentage of iron removed from the ferritin was calculated and is reported in Table 3. For comparative purposes, the procedure was repeated using a blank control, and also with the single ring, bidentate compound 1-ethyl-3-hydroxypyrid-4-one (at 10^-3 M). In addition, results reported in the literature for similar tests with 1×10^-3 M desferrioxamine (Crichton et al, J. Inorganic Biochem., 1980, 13, 305) and with 6×10^-3 M LICAMS (Tufano et al, Biochem. Biophys. Acta, 1981, 668, 420 ) are also given in the Table.

human erythrocytes = experiment: Permeation of 59Fe labelled iron complexes into human erythrocytes; format: cell-based; conditions: 59Fe complex 10^-3 M, 5% erythrocyte suspension, 1 hour, 37° C., pH 7.4; mean of at least three determinations
Procedure: The accumulation of iron by human erythrocytes which are associated with the iron complexes of three compounds described in earlier Examples was studied by incubating for 1 hour at 37° C. a 5% suspension of erythrocytes in a medium consisting of the ^59 Fe labelled iron complex^(1) (10^-3 M) in aqueous sodium chloride (130 mM) buffered to pH 7.4 by tris hydrochloride (2 ml). Following this period of incubation, an aliquot of the erythrocyte/medium mixture was placed above a layer of silicone oil and the erythrocytes separated by centrifugation through the oil. The ^59 Fe levels associated with the erythrocytes and the incubation medium were then counted. By way of comparison, a similar experiment was concluded with ferric citrate.

T1 sequence (P02787 20-698): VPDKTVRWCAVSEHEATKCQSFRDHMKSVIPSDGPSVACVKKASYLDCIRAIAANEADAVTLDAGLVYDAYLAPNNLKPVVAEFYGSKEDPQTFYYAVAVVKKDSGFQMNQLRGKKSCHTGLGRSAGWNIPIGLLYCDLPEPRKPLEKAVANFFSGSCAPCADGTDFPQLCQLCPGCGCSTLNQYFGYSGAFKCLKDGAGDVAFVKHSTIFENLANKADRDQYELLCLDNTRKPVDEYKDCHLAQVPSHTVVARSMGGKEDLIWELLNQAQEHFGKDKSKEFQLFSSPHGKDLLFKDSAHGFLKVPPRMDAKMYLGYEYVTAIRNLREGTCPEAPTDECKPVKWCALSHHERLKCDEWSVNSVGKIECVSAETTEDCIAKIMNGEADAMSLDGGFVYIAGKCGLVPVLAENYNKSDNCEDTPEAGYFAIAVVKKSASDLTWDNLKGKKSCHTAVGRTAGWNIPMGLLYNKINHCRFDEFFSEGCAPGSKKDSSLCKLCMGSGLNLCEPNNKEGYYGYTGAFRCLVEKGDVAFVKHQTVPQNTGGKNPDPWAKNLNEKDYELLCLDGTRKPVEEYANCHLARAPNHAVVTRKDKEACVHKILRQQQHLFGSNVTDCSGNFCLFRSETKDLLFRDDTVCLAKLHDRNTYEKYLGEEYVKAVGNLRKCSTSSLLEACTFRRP

## O=C(Cn1cccc(O)c1=O)NCCCN(CCCNC(=O)Cn1cccc(O)c1=O)C(=O)Cn1cccc(O)c1=O [Compound 10, N-(3-hydroxy-2-oxopyrid-1-ylacetyl)-N-[3-(3-hydroxy-2-oxopyrid-1-ylacetamido)-propyl]-3-(3-hydroxy-2-oxopyrid-1-ylacetamido)-propylamine]
[1]
  Partition coefficient Kpart, iron complex [Fe^III -(compound)3 ]: 0.3
[2]
  logD at 100 µM: -0.699

## [Cl][Fe]([Cl])[Cl] [FeCl3, ferric chloride]
Inverted rat jejunal sac
  Relative iron uptake into serosal space of jejunal sac: 1

## CC(=O)N(O)CCCCCNC(=O)CCC(=O)N(O)CCCCCNC(=O)CCC(=O)N(O)CCCCCN [Desferrioxamine, desferrioxamine]
Human transferrin
  Percentage of iron removed from transferrin after 6 hours: 17%
[3]
  log Ksol: 6.0
Horse spleen ferritin [4]; 10^-3 M, literature value (Crichton et al 1980)
  Percentage of iron removed from ferritin, 6 hours: 1.2%

## O=C(Cn1cccc(O)c1=O)NCCCCCCNC(=O)Cn1cccc(O)c1=O [Compound 4, 1,6-di-(3-hydroxy-2-oxopyrid-1-ylacetamido)-hexane]
Horse spleen ferritin [5]; compound 10^-4 M
  Percentage of iron removed from ferritin, 6 hours: < 1%
  Percentage of iron removed from ferritin, 24 hours: 3%

## CCn1ccc(=O)c(O)c1 [1-ethyl-3-hydroxypyrid-4-one, reference compound]
Horse spleen ferritin [5]; compound 10^-3 M
  Percentage of iron removed from ferritin, 6 hours: 25%
  Percentage of iron removed from ferritin, 24 hours: 44%

## O=C(O)CN(CCN(CC(=O)O)CC(=O)O)CC(=O)O [EDTA, ethylenediamine tetra-acetic acid, reference compound]
Human transferrin
  Percentage of iron removed from transferrin after 6 hours: 27%

## Cc1c(O)c(=O)ccn1C [1,2-dimethyl-3-hydroxypyrid-4-one]
[3]
  log Ksol: 9.5

## ferric citrate [Fe^III citrate]
Human erythrocytes
  Amount of complex entering erythrocytes: < 5 n.mole

## O=C(Cn1cccc(O)c1=O)NCCCCCCCCNC(=O)Cn1cccc(O)c1=O [Compound 5]
Human transferrin
  Percentage of iron removed from transferrin after 6 hours: 32%
[1]
  Partition coefficient Kpart, iron complex [Fe^III -(compound)3 ]: 0.10
[2]
  logD at 100 µM: -1.77

## Cn1cccc(O)c1=O [3-hydroxyl-1-methylpyrid-2-one]
[3]
  log Ksol: 10.0

## O=C(O)CN(CCN(CC(=O)O)CC(=O)O)CCN(CC(=O)O)CC(=O)O [DTPA, diethylenetriamine penta-acetic acid]
[3]
  log Ksol: 2.0

## O=C(NCCCCN(CCCNC(=O)c1cc(S(=O)(=O)O)cc(O)c1O)C(=O)c1cc(S(=O)(=O)O)cc(O)c1O)c1cc(S(=O)(=O)O)cc(O)c1O [LICAMS]
Horse spleen ferritin [4]; 6 × 10^-3 M, literature value (Tufano et al 1981)
  Percentage of iron removed from ferritin, 6 hours: 0%

## O=C(Cn1cccc(O)c1=O)NCCN(CCNC(=O)Cn1cccc(O)c1=O)CCNC(=O)Cn1cccc(O)c1=O [Compound 8]
Horse spleen ferritin [5]; compound 10^-4 M
  Percentage of iron removed from ferritin, 6 hours: 3%
  Percentage of iron removed from ferritin, 24 hours: 10%
Human transferrin
  Percentage of iron removed from transferrin after 6 hours: 40%
Human transferrin; versus desferrioxamine and EDTA
  Removal of iron from transferrin, comparison in words: markedly better results than desferrioxamine or EDTA
[1]
  Partition coefficient Kpart, iron complex [Fe^III -(compound)3 ]: 0.03
[2]
  logD at 100 µM: -1.7
